Reference: paper PMC12635268, “Novel antimicrobial peptides and peptide-microbiome crosstalk in Appalachian salamander skin” (NPJ Biofilms and Microbiomes, 2025)
Read-outs that look alike come from different tables or passages of the source.

Assays:
Assay in all cases: microbe, parasite or virus in culture
A. baumannii ATCC 19606 = details: Acinetobacter baumannii
Outline: (§1)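 Peptides tested 0.25–128 μg/mL (2-fold dilutions, TFA/BSA carrier) against 1 × 10⁵ CFU/mL inoculum in CAMHB, duplicates.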

E. coli ATCC 35218 = details: for Bacterial MIC: E. coli 35218; for MIC: Escherichia coli
Outline: as §1

E. faecium ATCC 19434 = details: Enterococcus faecium
Outline: as §1

E. faecium ATCC 49224 = details: Enterococcus faecium
Outline: as §1

K. pneumoniae ATCC 13883 = details: Klebsiella pneumoniae
Outline: as §1

[1] = test system: K. pneumoniae ATCC 700603; details: Klebsiella pneumoniae
Outline: as §1

P. aeruginosa ATCC 27853 = details: Pseudomonas aeruginosa
Outline: as §1

P. aeruginosa MRSN 5519 = details: Pseudomonas aeruginosa
Outline: as §1

S. aureus ATCC 25923 = details: for Bacterial MIC: S. aureus 25923; for MIC: Staphylococcus aureus
Outline: as §1

S. aureus ATCC 43300 = details: for Bacterial MIC: S. aureus 43300; for MIC: Staphylococcus aureus
Outline: as §1

P. aeruginosa PA01 = format: cell-based; details: Pseudomonas aeruginosa
Outline: as §1

P. aeruginosa PA01 (Si) = format: cell-based; details: P. aeruginosa PA01 (Si), not typical ESKAPEE strain
Source text: Supplement 41522_2025_837_MOESM13_ESM.xlsx, sheet "Table_S13_ESKAPEE-MIC" | column: Bacterial MIC (µg/mL)

C[C@H]1COc2c(N3CCN(C)CC3)c(F)cc3c(=O)c(C(=O)O)cn1c23 [Levofloxacin, reference compound]
8 µg/mL: MIC (P. aeruginosa PA01; PA01, 20 h, P. aeruginosa PA01, CAMHB, 1 × 10⁵ CFU/mL, 0.25 to 128 μg/mL, 37 °C 20 h, duplicate, read visually (CLSI), read-out: MIC) | Bacterial MIC (P. aeruginosa PA01 (Si); Week 2 (12/14/2023)) | MIC (P. aeruginosa PA01 (Si); Pseudomonas aeruginosa, Week 1 (12/6/2023), read-out: Bacterial MIC)
≤ 0.25 µg/mL: MIC (A. baumannii ATCC 19606; ATCC19606, read-out: Bacterial MIC, A. baumannii 19606, Historical run 22NOV23) | MIC (A. baumannii ATCC 19606; ATCC19606, read-out: Bacterial MIC, A. baumannii 19606, Week 1 (12/6/2023)) | MIC (A. baumannii ATCC 19606; ATCC19606, read-out: Bacterial MIC, A. baumannii 19606, Week 2 (12/14/2023)) | MIC (E. coli ATCC 35218; ATCC35218, read-out: Bacterial MIC) | MIC (K. pneumoniae ATCC 13883; ATCC13883, read-out: Bacterial MIC, K. pneumoniae 13883, Historical run 15NOV23) | MIC (K. pneumoniae ATCC 13883; ATCC13883, read-out: Bacterial MIC, K. pneumoniae 13883, Historical run 22NOV23) | MIC (K. pneumoniae ATCC 13883; ATCC13883, read-out: Bacterial MIC, K. pneumoniae 13883, Week 1 (12/6/2023)) | MIC (K. pneumoniae ATCC 13883; ATCC13883, read-out: Bacterial MIC, K. pneumoniae 13883, Week 2 (12/14/2023)) | MIC ([1]; ATCC700603, read-out: Bacterial MIC, K. pneumoniae 700603, Historical run 22NOV23) | MIC (S. aureus ATCC 25923; ATCC25923, read-out: Bacterial MIC) | MIC (S. aureus ATCC 43300; ATCC43300, read-out: Bacterial MIC) | MIC (P. aeruginosa PA01; PAO1, P. aeruginosa 15692 (PAO1), Historical run 22NOV23, read-out: Bacterial MIC) | MIC (P. aeruginosa PA01; PAO1, P. aeruginosa 15692 (PAO1), Week 2 (12/14/2023), read-out: Bacterial MIC)
<= 0.250 µg/mL: Bacterial MIC (E. coli ATCC 35218; Historical run 15NOV23) | Bacterial MIC (E. coli ATCC 35218; Historical run 19APRIL23) | Bacterial MIC (E. coli ATCC 35218; Historical run 22NOV23) | Bacterial MIC (E. coli ATCC 35218; Week 2 (12/14/2023)) | Bacterial MIC (S. aureus ATCC 25923; Historical run 15NOV23) | Bacterial MIC (S. aureus ATCC 25923; Historical run 19APRIL23) | Bacterial MIC (S. aureus ATCC 25923; Historical run 22NOV23) | Bacterial MIC (S. aureus ATCC 25923; Week 2 (12/14/2023)) | Bacterial MIC (S. aureus ATCC 43300; Historical run 15NOV23) | Bacterial MIC (S. aureus ATCC 43300; Historical run 19APRIL23) | Bacterial MIC (S. aureus ATCC 43300; Historical run 22NOV23) | Bacterial MIC (S. aureus ATCC 43300; Week 2 (12/14/2023))
64 µg/mL: MIC (P. aeruginosa MRSN 5519; MRSN5519, read-out: Bacterial MIC, P. aeruginosa 5519, Historical run 15NOV23) | MIC (P. aeruginosa MRSN 5519; MRSN5519, read-out: Bacterial MIC, P. aeruginosa 5519, Historical run 19APRIL23)
2 µg/mL: MIC (E. faecium ATCC 19434; ATCC19434, read-out: Bacterial MIC, E. faecium 19434, Historical run 22NOV23) | MIC (E. faecium ATCC 49224; ATCC49224, 20 h, E. faecium 49224, CAMHB, 1 × 10⁵ CFU/mL, 0.25 to 128 μg/mL, 37 °C 20 h, duplicate, read visually (CLSI)) | MIC (E. faecium ATCC 49224; ATCC49224, read-out: Bacterial MIC, E. faecium 49224, Historical run 19APRIL23) | MIC (E. faecium ATCC 49224; ATCC49224, read-out: Bacterial MIC, E. faecium 49224, Week 1 (12/6/2023)) | MIC (E. faecium ATCC 49224; ATCC49224, read-out: Bacterial MIC, E. faecium 49224, Week 2 (12/14/2023))
32 µg/mL: MIC (P. aeruginosa MRSN 5519; MRSN5519, 20 h, P. aeruginosa 5519, CAMHB, 1 × 10⁵ CFU/mL, 0.25 to 128 μg/mL, 37 °C 20 h, duplicate, read visually (CLSI)) | MIC (P. aeruginosa MRSN 5519; MRSN5519, read-out: Bacterial MIC, P. aeruginosa 5519, Historical run 22NOV23) | MIC (P. aeruginosa MRSN 5519; MRSN5519, read-out: Bacterial MIC, P. aeruginosa 5519, Week 1 (12/6/2023)) | MIC (P. aeruginosa MRSN 5519; MRSN5519, read-out: Bacterial MIC, P. aeruginosa 5519, Week 2 (12/14/2023))
0.5 µg/mL: MIC (A. baumannii ATCC 19606; ATCC19606, read-out: Bacterial MIC, A. baumannii 19606, Historical run 15NOV23) | MIC (A. baumannii ATCC 19606; ATCC19606, read-out: Bacterial MIC, A. baumannii 19606, Historical run 19APRIL23) | MIC ([1]; ATCC700603, 20 h, K. pneumoniae 700603, CAMHB, 1 × 10⁵ CFU/mL, 0.25 to 128 μg/mL, 37 °C 20 h, duplicate, read visually (CLSI)) | MIC ([1]; ATCC700603, read-out: Bacterial MIC, K. pneumoniae 700603, Historical run 15NOV23) | MIC ([1]; ATCC700603, read-out: Bacterial MIC, K. pneumoniae 700603, Week 1 (12/6/2023)) | MIC ([1]; ATCC700603, read-out: Bacterial MIC, K. pneumoniae 700603, Week 2 (12/14/2023)) | MIC (P. aeruginosa ATCC 27853; ATCC27853, 20 h, P. aeruginosa 27853, CAMHB, 1 × 10⁵ CFU/mL, 0.25 to 128 μg/mL, 37 °C 20 h, duplicate, read visually (CLSI)) | MIC (P. aeruginosa ATCC 27853; ATCC27853, read-out: Bacterial MIC, P. aeruginosa 27853, Historical run 22NOV23) | MIC (P. aeruginosa ATCC 27853; ATCC27853, read-out: Bacterial MIC, P. aeruginosa 27853, Week 1 (12/6/2023)) | MIC (P. aeruginosa ATCC 27853; ATCC27853, read-out: Bacterial MIC, P. aeruginosa 27853, Week 2 (12/14/2023)) | MIC (P. aeruginosa PA01; PAO1, P. aeruginosa 15692 (PAO1), Historical run 15NOV23, read-out: Bacterial MIC) | MIC (P. aeruginosa PA01; PAO1, P. aeruginosa 15692 (PAO1), Historical run 19APRIL23, read-out: Bacterial MIC)
1 µg/mL: MIC (E. faecium ATCC 49224; ATCC49224, read-out: Bacterial MIC, E. faecium 49224, Historical run 15NOV23) | MIC (E. faecium ATCC 49224; ATCC49224, read-out: Bacterial MIC, E. faecium 49224, Historical run 22NOV23) | MIC (P. aeruginosa ATCC 27853; ATCC27853, read-out: Bacterial MIC, P. aeruginosa 27853, Historical run 15NOV23) | MIC (P. aeruginosa ATCC 27853; ATCC27853, read-out: Bacterial MIC, P. aeruginosa 27853, Historical run 19APRIL23)
4 µg/mL: MIC (E. faecium ATCC 19434; ATCC19434, 20 h, E. faecium 19434, CAMHB, 1 × 10⁵ CFU/mL, 0.25 to 128 μg/mL, 37 °C 20 h, duplicate, read visually (CLSI)) | MIC (E. faecium ATCC 19434; ATCC19434, read-out: Bacterial MIC, E. faecium 19434, Historical run 15NOV23) | MIC (E. faecium ATCC 19434; ATCC19434, read-out: Bacterial MIC, E. faecium 19434, Historical run 19APRIL23) | MIC (E. faecium ATCC 19434; ATCC19434, read-out: Bacterial MIC, E. faecium 19434, Week 1 (12/6/2023))
0.25 µg/mL: MIC (A. baumannii ATCC 19606; ATCC19606, 20 h, A. baumannii 19606, CAMHB, 1 × 10⁵ CFU/mL, 0.25 to 128 μg/mL, 37 °C 20 h, duplicate, read visually (CLSI)) | MIC (E. coli ATCC 35218; ATCC35218, 20 h) | MIC (K. pneumoniae ATCC 13883; ATCC13883, 20 h, K. pneumoniae 13883, CAMHB, 1 × 10⁵ CFU/mL, 0.25 to 128 μg/mL, 37 °C 20 h, duplicate, read visually (CLSI)) | MIC (S. aureus ATCC 25923; ATCC25923, 20 h) | MIC (S. aureus ATCC 43300; ATCC43300, 20 h)
4 to 8 µg/mL: MIC (E. faecium ATCC 19434; ATCC19434, read-out: Bacterial MIC, E. faecium 19434, Week 2 (12/14/2023))
0.25 to 0.5 µg/mL: MIC (K. pneumoniae ATCC 13883; ATCC13883, read-out: Bacterial MIC, K. pneumoniae 13883, Historical run 19APRIL23)
0.5 to 1 µg/mL: MIC ([1]; ATCC700603, read-out: Bacterial MIC, K. pneumoniae 700603, Historical run 19APRIL23)
